The source made the active and inactive calls. The rule behind the calls is not given here.
How the values were obtained:
[1] = target: T1, Toll-like receptor 4 (Mus musculus) (UniProt Q9QUK6); assay: Agonist activity at TLR-4 in C57BL/6 mouse peritoneal exudate macrophages assessed as increase in IL-6 production at 1 to 5 ug/ml at 24 hrs post dose by ELISA relative to (Cyclohexyl-2-phthalimido-3,4,6-tri-O-acetyl-beta-D-glucopyranosyl)-2-O-acetyl-3-O-benzoyl-4,6-O-pyruvate-beta-D-galactopyranose
T1 sequence (whole entry): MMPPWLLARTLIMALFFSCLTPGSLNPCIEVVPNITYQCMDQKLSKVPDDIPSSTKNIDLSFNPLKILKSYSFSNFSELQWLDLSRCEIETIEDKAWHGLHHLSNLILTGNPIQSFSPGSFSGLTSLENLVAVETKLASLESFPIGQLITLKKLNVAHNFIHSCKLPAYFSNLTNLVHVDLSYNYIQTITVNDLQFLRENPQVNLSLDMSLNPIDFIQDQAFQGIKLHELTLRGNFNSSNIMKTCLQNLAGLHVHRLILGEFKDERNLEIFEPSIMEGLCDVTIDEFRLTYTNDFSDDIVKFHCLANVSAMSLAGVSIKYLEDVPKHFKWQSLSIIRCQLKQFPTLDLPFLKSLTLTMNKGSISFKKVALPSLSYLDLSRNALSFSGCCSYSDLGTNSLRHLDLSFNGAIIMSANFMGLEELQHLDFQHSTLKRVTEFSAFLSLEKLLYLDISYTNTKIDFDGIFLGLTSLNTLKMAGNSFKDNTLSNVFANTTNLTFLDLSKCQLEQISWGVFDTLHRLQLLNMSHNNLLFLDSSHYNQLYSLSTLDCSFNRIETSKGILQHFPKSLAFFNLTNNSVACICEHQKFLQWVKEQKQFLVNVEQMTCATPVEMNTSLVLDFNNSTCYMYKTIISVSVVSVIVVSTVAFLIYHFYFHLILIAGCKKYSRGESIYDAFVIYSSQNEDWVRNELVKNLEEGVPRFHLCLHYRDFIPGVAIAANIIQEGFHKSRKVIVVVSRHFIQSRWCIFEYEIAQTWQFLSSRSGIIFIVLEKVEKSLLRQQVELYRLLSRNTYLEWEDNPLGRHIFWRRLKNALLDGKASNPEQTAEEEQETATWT

[2] = target: T1, Toll-like receptor 4 (Mus musculus); assay: Binding affinity to TLR-4 in C57BL/6 mouse peritoneal exudate macrophages assessed as cells binding to PE conjugated anti-TLR-4 monoclonal antibody at 10 ug/ml preincubated for 4 hrs followed by antibody addition by flow cytometry (reference value: 50.8%)
[3] = Effect on adaptive immune system in mouse splenocytes assessed as polyclonal activation of T-lymphocytes; format: cell-based; settings: splenocyte
[4] = target: T1, Toll-like receptor 4 (Mus musculus); assay: Agonist activity at TLR-4 in C57BL/6 mouse peritoneal exudate macrophages assessed as increase in TNF-alpha production at 1 to 5 ug/ml measured within 2 hrs by ELISA
[5] = target: T1, Toll-like receptor 4 (Mus musculus); assay: Binding affinity to TLR-4 in C57BL/6 mouse peritoneal exudate macrophages assessed as cells binding to PE conjugated anti-TLR-4 monoclonal antibody at 5 ug/ml preincubated for 4 hrs followed by antibody addition by flow cytometry (reference value: 50.8%)
[6] = target: T1, Toll-like receptor 4 (Mus musculus); assay: Agonist activity at TLR4 in TLR-2 deficient C57BL/6 mouse peritoneal exudate macrophages assessed as induction of IL-6 production at 1 to 5 ug/ml measured after up to 48 hrs by ELISA
[7] = target: T1, Toll-like receptor 4 (Mus musculus); assay: Agonist activity at TLR-4 in mouse RAW264.7 cells assessed as increase in TNF-alpha production at 1 to 5 ug/ml measured within 2 hrs by ELISA; format: cell-based
[8] = target: T1, Toll-like receptor 4 (Mus musculus); assay: Binding affinity to TLR-4 in C57BL/6 mouse peritoneal exudate macrophages assessed as cells binding to PE conjugated anti-TLR-4 monoclonal antibody at 1 ug/ml preincubated for 4 hrs followed by antibody addition by flow cytometry (reference value: 50.8%)
[9] = Effect on adaptive immune system in mouse splenocytes assessed as polyclonal activation of B-lymphocytes; format: cell-based; settings: splenocyte
[10] = target: T1, Toll-like receptor 4 (Mus musculus); assay: Agonist activity at TLR-4 in C57BL/6 mouse peritoneal exudate macrophages assessed as increase in TNF-alpha production at 1 to 5 ug/ml up to 24 hrs post dose by ELISA relative to thiophenyl-2-O-acetyl-3-O-benzoyl-4,6-O-pyruvate-[…]-D-galactopyranose
[11] = target: T1, Toll-like receptor 4 (Mus musculus); assay: Agonist activity at TLR-4 in mouse RAW264.7 cells assessed as increase in IL-6 production at 1 to 5 ug/ml measured after 48 hrs by ELISA; format: cell-based
[12] = target: T1, Toll-like receptor 4 (Mus musculus); assay: Agonist activity at TLR-4 in TLR2 deficient C57BL/6 mouse peritoneal exudate macrophages assessed as increase in TNF-alpha production at 1 to 5 ug/ml measured after 2 to 24 hrs by ELISA
[13] = target: T1, Toll-like receptor 4 (Mus musculus); assay: Agonist activity at TLR-4 in C57BL/6 mouse peritoneal exudate macrophages assessed as increase in IL-6 production at 1 to 5 ug/ml measured after 48 hrs by ELISA
[14] = target: T1, Toll-like receptor 4 (Mus musculus); assay: Binding affinity to TLR-4 in C57BL/6 mouse peritoneal exudate macrophages assessed as decrease in cells binding to PE conjugated anti-TLR-4 monoclonal antibody preincubated for 4 hrs followed by antibody addition by flow cytometry
[15] = target: Toll-like receptor 2 (Mus musculus) (UniProt Q9QUN7); assay: Binding affinity to TLR-2 in C57BL/6 mouse peritoneal exudate macrophages assessed as cells binding to PE conjugated anti-TLR-2 monoclonal antibody at 10 ug/ml preincubated for 4 hrs followed by antibody addition by flow cytometry (reference value: 30.8%)
Sequence of Toll-like receptor 2 (Mus musculus) (Q9QUN7 whole entry): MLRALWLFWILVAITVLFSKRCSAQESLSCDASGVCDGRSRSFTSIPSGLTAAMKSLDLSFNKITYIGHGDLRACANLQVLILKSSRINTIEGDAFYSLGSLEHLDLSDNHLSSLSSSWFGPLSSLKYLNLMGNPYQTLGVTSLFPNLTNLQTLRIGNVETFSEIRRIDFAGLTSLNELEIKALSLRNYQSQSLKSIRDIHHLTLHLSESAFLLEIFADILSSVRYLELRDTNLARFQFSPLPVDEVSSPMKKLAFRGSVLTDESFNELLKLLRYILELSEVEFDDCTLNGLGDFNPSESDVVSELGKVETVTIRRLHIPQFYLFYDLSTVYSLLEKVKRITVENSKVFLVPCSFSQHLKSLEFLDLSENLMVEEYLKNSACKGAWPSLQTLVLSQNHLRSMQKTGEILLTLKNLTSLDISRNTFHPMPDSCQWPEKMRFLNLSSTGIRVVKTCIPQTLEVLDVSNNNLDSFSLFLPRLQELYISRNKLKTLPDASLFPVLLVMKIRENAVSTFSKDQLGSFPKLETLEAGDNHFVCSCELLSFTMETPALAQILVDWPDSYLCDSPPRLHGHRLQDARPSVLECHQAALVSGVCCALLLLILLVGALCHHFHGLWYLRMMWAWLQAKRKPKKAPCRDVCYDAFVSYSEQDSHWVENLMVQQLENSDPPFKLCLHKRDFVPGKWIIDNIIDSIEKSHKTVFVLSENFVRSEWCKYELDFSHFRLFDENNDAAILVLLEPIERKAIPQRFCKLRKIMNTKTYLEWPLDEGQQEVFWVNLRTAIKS

Activity [1] [%] | Activity [2] [%] | Activity [4] | Activity [5] [%] | Activity [6] | Activity [7] | Activity [8] [%] | Activity [10] [%] | Activity [11] | Activity [12] | Activity [13] | Activity [14] | Activity [15] [%] | Compound | Activity [3] | Activity [9]
50 |  |  |  |  |  |  |  |  |  |  |  |  | COC(=O)C1(C)OC[C@H]2O[C@@H](Sc3ccccc3)[C@H](OC(C)=O)[C@@H](OC(=O)c3ccccc3)[C@H]2O1 (stereo partly specified) |  | 
50 |  |  |  |  |  |  |  |  |  |  |  |  | CCS[C@@H]1O[C@H](COC(C)=O)[C@@H](OC(C)=O)[C@H](OC(C)=O)[C@H]1N1C(=O)c2ccccc2C1=O |  | 
 | 24.3 | Active | 37.3 | Active | Active | 45.2 | 50 | Active | Active | Active | Dose-dependent effect | 33.4 | COC(=O)C1(C)OC[C@H]2O[C@@H](OC3CCC(O[C@@H]4O[C@H](COC(C)=O)[C@@H](OC(C)=O)[C@H](OC(C)=O)[C@H]4N4C(=O)c5ccccc5C4=O)CC3)[C@H](OC(C)=O)[C@@H](OC(=O)c3ccccc3)[C@H]2O1 (stereo partly specified) | Non-Toxic | Non-Toxic

Reference: ChEMBL document CHEMBL3872274, “Synthesis and immunological evaluation of a low molecular weight saccharide with TLR-4 agonist activity” (Bioorg Med Chem, 2017)
